The text below walks through data of patent US7211424B1, “Mammalian Subtilisin/kexin isozyme SKI-1: a proprotein convertase with a unique cleavage specificity” (Institut de Recherches Cliniques de Montreal, priority 1999, dated 2007).

Where two headings read alike, the source gives them in different places.

Series [1] has as its target T1, SKI-1 (Homo sapiens, UniProt Q14703).
T1 sequence (Q14703 187-1052): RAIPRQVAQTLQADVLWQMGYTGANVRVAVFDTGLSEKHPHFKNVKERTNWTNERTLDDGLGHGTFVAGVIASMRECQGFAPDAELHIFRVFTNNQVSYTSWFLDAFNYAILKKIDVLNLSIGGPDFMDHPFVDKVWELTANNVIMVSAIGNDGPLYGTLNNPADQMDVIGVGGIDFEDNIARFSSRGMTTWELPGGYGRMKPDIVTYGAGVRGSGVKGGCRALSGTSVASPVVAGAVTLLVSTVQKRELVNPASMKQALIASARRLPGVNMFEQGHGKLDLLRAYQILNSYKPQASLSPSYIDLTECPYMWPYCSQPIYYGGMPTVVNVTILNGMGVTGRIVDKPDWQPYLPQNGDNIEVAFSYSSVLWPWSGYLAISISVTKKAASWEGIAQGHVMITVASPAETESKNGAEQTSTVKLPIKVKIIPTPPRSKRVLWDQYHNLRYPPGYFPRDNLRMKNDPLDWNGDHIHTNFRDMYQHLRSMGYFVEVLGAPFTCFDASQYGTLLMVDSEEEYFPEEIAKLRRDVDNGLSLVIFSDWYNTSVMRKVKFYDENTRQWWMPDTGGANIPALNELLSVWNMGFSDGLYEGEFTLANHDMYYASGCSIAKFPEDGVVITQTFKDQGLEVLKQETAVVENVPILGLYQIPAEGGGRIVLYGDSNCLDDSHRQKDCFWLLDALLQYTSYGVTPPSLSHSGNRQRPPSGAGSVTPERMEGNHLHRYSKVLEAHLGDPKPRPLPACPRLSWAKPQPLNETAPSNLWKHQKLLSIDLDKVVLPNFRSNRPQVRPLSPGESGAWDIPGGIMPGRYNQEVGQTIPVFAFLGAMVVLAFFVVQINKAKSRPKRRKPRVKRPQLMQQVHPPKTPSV
To be noted: previously established (ref. 10); cited from earlier work.

Series [2] addresses T1, SKI-1. In words: Example 6: synthetic peptides examined as possible substrates of recombinant SKI-1. The series is classed as biochemical. The arrangement: made in house. The source says:
A large number of synthetic peptides based on potential cleavage sites in the hSKI-1 prodomain, proBDNF and the loop region of SREBP-2 were synthesized.
These peptides were examined as possible substrates of SKI-1.

Series [3] has as its target T2, SKI-1 (Homo sapiens, UniProt Q14703).
T2 sequence (Q14703 187-998 limits assumed): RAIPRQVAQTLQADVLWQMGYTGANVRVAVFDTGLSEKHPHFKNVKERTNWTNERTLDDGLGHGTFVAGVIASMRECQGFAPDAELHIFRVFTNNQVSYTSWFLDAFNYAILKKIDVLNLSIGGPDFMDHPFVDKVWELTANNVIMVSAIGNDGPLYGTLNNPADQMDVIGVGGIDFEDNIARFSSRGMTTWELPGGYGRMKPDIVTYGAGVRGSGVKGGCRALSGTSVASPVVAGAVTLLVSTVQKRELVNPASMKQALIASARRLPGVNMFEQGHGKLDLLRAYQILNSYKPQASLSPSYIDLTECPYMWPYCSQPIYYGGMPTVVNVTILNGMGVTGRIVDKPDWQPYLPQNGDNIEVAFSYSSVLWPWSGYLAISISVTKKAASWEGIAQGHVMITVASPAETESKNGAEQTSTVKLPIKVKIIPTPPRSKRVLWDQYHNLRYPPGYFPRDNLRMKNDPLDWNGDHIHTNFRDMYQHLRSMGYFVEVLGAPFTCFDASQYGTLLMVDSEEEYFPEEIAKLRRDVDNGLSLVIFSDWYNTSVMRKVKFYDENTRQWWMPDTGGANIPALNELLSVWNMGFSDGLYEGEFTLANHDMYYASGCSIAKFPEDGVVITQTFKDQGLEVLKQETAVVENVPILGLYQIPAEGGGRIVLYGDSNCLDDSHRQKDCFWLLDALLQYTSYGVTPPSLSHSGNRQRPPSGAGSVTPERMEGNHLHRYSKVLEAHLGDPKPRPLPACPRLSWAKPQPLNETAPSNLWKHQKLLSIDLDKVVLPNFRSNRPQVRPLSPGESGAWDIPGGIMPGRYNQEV
The format is biochemical.

Series [4] deals with T3, BTMD-hSKI-1 (Homo sapiens, UniProt Q14703).
T3 sequence (Q14703 187-997 limits assumed): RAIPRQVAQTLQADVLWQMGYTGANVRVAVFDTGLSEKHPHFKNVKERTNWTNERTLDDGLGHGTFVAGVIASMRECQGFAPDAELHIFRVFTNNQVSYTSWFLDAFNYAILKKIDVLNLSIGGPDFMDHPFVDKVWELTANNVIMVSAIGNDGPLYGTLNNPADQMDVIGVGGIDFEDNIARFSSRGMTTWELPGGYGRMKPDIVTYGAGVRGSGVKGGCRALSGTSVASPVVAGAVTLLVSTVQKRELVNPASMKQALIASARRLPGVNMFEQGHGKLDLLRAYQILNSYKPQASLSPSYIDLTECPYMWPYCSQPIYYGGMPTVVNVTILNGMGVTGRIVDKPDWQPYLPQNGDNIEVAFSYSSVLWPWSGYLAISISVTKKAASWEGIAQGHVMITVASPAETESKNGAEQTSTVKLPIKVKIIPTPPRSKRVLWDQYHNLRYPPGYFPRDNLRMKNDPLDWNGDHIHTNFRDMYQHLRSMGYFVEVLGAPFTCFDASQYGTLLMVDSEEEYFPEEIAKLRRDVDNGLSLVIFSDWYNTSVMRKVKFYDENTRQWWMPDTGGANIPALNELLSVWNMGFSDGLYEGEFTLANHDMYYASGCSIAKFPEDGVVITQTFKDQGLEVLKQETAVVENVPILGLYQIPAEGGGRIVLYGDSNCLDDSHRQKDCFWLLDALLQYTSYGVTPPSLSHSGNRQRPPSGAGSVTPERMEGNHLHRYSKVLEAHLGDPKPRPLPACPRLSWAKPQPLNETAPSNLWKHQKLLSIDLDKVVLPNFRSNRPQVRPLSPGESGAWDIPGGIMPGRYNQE
The format is biochemical.

Substrate in series [5]: CC(C)C[C@H](NC(=O)[C@H](C)NC(=O)[C@H](CCCNC(=N)N)NC(=O)[C@H](CC(C)C)NC(=O)[C@H](CC(C)C)NC(=O)[C@H](CCCNC(=N)N)NC(=O)[C@H](CCCNC(=N)N)NC(=O)[C@@H](N)CO)C(=O)N[C@@H](CCC(=O)O)C(N)=O
Nature of the series: purified protein, by the assay type. As to conditions: other: BTMD-SKI-1 medium, times giving 5–30% substrate hydrolysis; averages of duplicate assays; pH 6.5; 37.0 °C.

Substrate in series [6]: CC(C)C[C@H](NC(=O)[C@@H](NC(=O)[C@H](CO)NC(=O)[C@H](CCCNC(=N)N)NC(=O)CNC(=O)[C@H](CO)NC(=O)CNC(=O)[C@H](CO)NC(=O)[C@H](Cc1c[nH]cn1)NC(=O)[C@@H]1CCCN1C(=O)[C@H](Cc1c[nH]cn1)NC(=O)[C@H](CCC(N)=O)NC(=O)[C@H](CC(=O)O)NC(=O)[C@H](CO)NC(=O)[C@H](CC(=O)O)NC(=O)[C@H](Cc1c[nH]cn1)NC(=O)[C@H](C)NC(=O)CNC(=O)CN)C(C)C)C(=O)N[C@@H](CO)C(=O)N[C@@H](Cc1ccccc1)C(=O)N[C@@H](CCC(=O)O)C(=O)N[C@@H](CO)C(=O)NCC(=O)N[C@@H](CO)C(=O)NCC(=O)NCC(=O)O
In words: purified protein, by the assay type. As to conditions: other: BTMD-SKI-1 medium, times giving 5–30% substrate hydrolysis; averages of duplicate assays; pH 6.5; 37.0 °C.

Substrate in series [7]: CC(C)C[C@H](NC(=O)[C@H](C)NC(=O)[C@H](CCCNC(=N)N)NC(=O)[C@H](CC(C)C)NC(=O)[C@H](CC(C)C)NC(=O)[C@H](CCCNC(=N)N)NC(=O)[C@H](CCCNC(=N)N)NC(=O)[C@H](CO)NC(=O)[C@H](CO)NC(=O)[C@H](Cc1c[nH]cn1)NC(=O)[C@H](CCCNC(=N)N)NC(=O)CNC(=O)[C@@H](NC(=O)[C@H](C)NC(=O)[C@H](Cc1c[nH]cn1)NC(=O)[C@@H](N)Cc1c[nH]c2ccccc12)[C@@H](C)O)C(=O)N[C@@H](CCC(=O)O)C(N)=O
Nature of the series: purified protein, by the assay type. As to conditions: other: BTMD-SKI-1 medium, times giving 5–30% substrate hydrolysis; averages of duplicate assays; pH 6.5; 37.0 °C.

As for RGLT-MCA, the “cleavage of fluorogenic MCA peptides lacking P′ residues” value in series [1] is reported as “does not cleave”. With “Ser-Gly-Ser-Gly-Arg-Ser-Val-Leu↓Ser-Phe-Glu-Ser [(x)]”, the “cleavage by the recombinant SKI-1” value in series [2] is on record as “efficiently cleaved”.

For “Ser-Ser-Arg-Arg-Leu-Leu↓Arg-Ala-Ile-Glu [(iv)]”, the “cleavage by the recombinant SKI-1” value in series [2] is reported as “efficiently cleaved”. Take RGLTT-MCA: the “cleavage of fluorogenic MCA peptides lacking P′ residues” value in series [1] is on record as “does not cleave”. In the case of `c1cnc2c(c1)ccc1cccnc12` [O-Phenanthroline, o-phenanthroline], the “inhibition of the processing of proBDNF by SKI-1” value is listed as 25% in series [3] (at 1 mM) and “effectively inhibit” in series [3] (overnight 37° C., pH 6.0, PMSF 0.5 mM + pAPMSF 50 μM, o-phenanthroline 5 mM, EDTA 10 mM).

With RSVL-MCA, the “cleavage of fluorogenic MCA peptides lacking P′ residues” value in series [1] is on record as “does not cleave”. In the case of PQRKVFRSLKYAESD [IX], in series [2], the “cleavage by the recombinant SKI-1” value is “efficiently cleaved”.

B1: ˜14 kDa peptide: ˜14 kDa N-terminal fragment of the SKI-1 prosegment, major secreted form (protein)
chain: GKKHLGDRLEKKSFEKAPCPGCSHLTLKVEFSSTVVEYEYIVAFNGYFTAKARNSFISSALKSSEVDNWRIIPRNNPSSDYPSDFEVIQIKEKQKAGLLTLEDHPNIKRVTPQRKVFRSL
In the case of B1, in series [4], the “inhibitory activity of the RP-HPLC-fractionated native prosegment” value was “not inhibitory”.

B2: BTMD-hSKI-1 (Homo sapiens) (protein)
chain: RAIPRQVAQTLQADVLWQMGYTGANVRVAVFDTGLSEKHPHFKNVKERTNWTNERTLDDGLGHGTFVAGVIASMRECQGFAPDAELHIFRVFTNNQVSYTSWFLDAFNYAILKKIDVLNLSIGGPDFMDHPFVDKVWELTANNVIMVSAIGNDGPLYGTLNNPADQMDVIGVGGIDFEDNIARFSSRGMTTWELPGGYGRMKPDIVTYGAGVRGSGVKGGCRALSGTSVASPVVAGAVTLLVSTVQKRELVNPASMKQALIASARRLPGVNMFEQGHGKLDLLRAYQILNSYKPQASLSPSYIDLTECPYMWPYCSQPIYYGGMPTVVNVTILNGMGVTGRIVDKPDWQPYLPQNGDNIEVAFSYSSVLWPWSGYLAISISVTKKAASWEGIAQGHVMITVASPAETESKNGAEQTSTVKLPIKVKIIPTPPRSKRVLWDQYHNLRYPPGYFPRDNLRMKNDPLDWNGDHIHTNFRDMYQHLRSMGYFVEVLGAPFTCFDASQYGTLLMVDSEEEYFPEEIAKLRRDVDNGLSLVIFSDWYNTSVMRKVKFYDENTRQWWMPDTGGANIPALNELLSVWNMGFSDGLYEGEFTLANHDMYYASGCSIAKFPEDGVVITQTFKDQGLEVLKQETAVVENVPILGLYQIPAEGGGRIVLYGDSNCLDDSHRQKDCFWLLDALLQYTSYGVTPPSLSHSGNRQRPPSGAGSVTPERMEGNHLHRYSKVLEAHLGDPKPRPLPACPRLSWAKPQPLNETAPSNLWKHQKLLSIDLDKVVLPNFRSNRPQVRPLSPGESGAWDIPGGIMPGRYNQE
The term Vmax denotes the top rate of the reaction or transport when substrate is in excess. Consider B2, for which the Km turned out to be 109 nM*1000 in series [5], 124 nM*1000 in series [6] and 17 nM*1000 in series [7]. Besides, the Vmax was 1.83e-05 µmol/min in series [5], 8.33e-06 µmol/min in series [6] and 6.67e-06 µmol/min in series [7].
